We go through 23 compounds from PubChem BioAssay AID256 (DTP/NCI, 2004).

This experiment has as its system CD2F1 mice, L1210 leukemia ip, survival T/C. Put plainly: NCI In Vivo Anticancer Drug Screen. Data for tumor model L1210 Leukemia (intraperitoneal) in CD2F1 (CDF1) mice. The conditions noted are these: higher = longer survival. An outline of the steps: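 Implant tumor; dose compound or vehicle; measure endpoint in both groups; report treated divided by control.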

The mark [1] stands for this setting: endpoint: mean survival time, dose: 50.0 mg/kg/injection, schedule: Q01DX009 (ip), vehicle: saline with Tween-80.
The mark [2] stands for this setting: endpoint: mean survival time, dose: 100.0 mg/kg/injection, schedule: Q01DX009 (ip), vehicle: saline with Tween-80.
Setting [3] is: endpoint: mean survival time, dose: 100.0 mg/kg/injection, schedule: Q04DX003 (ip), vehicle: saline with Tween-80.
[4] abbreviates: endpoint: mean survival time, dose: 200.0 mg/kg/injection, schedule: Q01DX009 (ip), vehicle: saline with Tween-80.
Setting [5] is: endpoint: mean survival time, dose: 200.0 mg/kg/injection, schedule: Q04DX003 (ip), vehicle: saline with Tween-80.
Setting [6] is: endpoint: mean survival time, dose: 400.0 mg/kg/injection, schedule: Q04DX003 (ip), vehicle: saline with Tween-80.
[7] abbreviates: endpoint: mean survival time, dose: 25.0 mg/kg/injection, schedule: Q01DX009 (ip), vehicle: saline with Tween-80.
The mark [8] stands for this setting: endpoint: mean survival time, dose: 100.0 mg/kg/injection, schedule: Q04DX003 (ip), vehicle: saline.
Where [9] appears, read: endpoint: mean survival time, dose: 200.0 mg/kg/injection, schedule: Q04DX003 (ip), vehicle: saline.
[10] abbreviates: endpoint: mean survival time, dose: 400.0 mg/kg/injection, schedule: Q04DX003 (ip), vehicle: saline.
Setting [11] is: endpoint: mean survival time, dose: 400.0 mg/kg/injection, schedule: Q01DX009 (ip), vehicle: saline with Tween-80.

Several values for one entry are separate records, joined by “and”; a condition that tells them apart may be missing. Identical values can stand only once. Inconclusive results and toxic doses are left out.

`O=C1CCN(Cc2ccccc2)C(=O)N1`: the T/C was 97 % of control under setting [1]; 98 % of control under setting [2]; 106 % of control under setting [3]; 98 % of control under setting [4]; 97 % of control under setting [5].

Regarding `CCCCOC(=O)c1ccc(NC(=O)Nc2ccccc2Cl)cc1`, the T/C reads like this: under setting [1], 89 % of control; under setting [2], 86 % of control; under setting [3], 91 % of control; under setting [4], 96 % of control; under setting [5], 100 % of control.

For `COc1ccc(OC)c(/C=N/N=C/c2cc(OC)ccc2OC)c1`, the T/C by setting is: under setting [3], 106 % of control; under setting [5], 94 % of control; under setting [6], 94 % of control.

Take `Cc1nc(SCc2ccc(Cl)cc2)[nH]c(=O)c1CCO`: the T/C was 92 % of control under setting [3], 96 % of control under setting [5] and 94 % of control under setting [6].

In the case of `COc1ccc2[nH]cc(CN(C)C)c2c1`, the T/C reads like this: under setting [7], 100 % of control; (endpoint: mean survival time, dose: 33.0 mg/kg/injection, schedule: Q01DX009 (ip), vehicle: saline with Tween-80) 101 % of control; under setting [1], 106 % of control; under setting [2], 105 % of control; under setting [3], 88 % of control.

In the case of `CN(C)C(CCN1CCCCC1)CN1CCCCC1` (stereo not given), the T/C runs as follows: (endpoint: mean survival time, dose: 100.0 mg/kg/injection, schedule: Q01DX009 (ip), vehicle: saline) 101 % of control; under setting [8], 101 % of control; (endpoint: mean survival time, dose: 200.0 mg/kg/injection, schedule: Q01DX009 (ip), vehicle: saline) 98 % of control; under setting [9], 101 % of control; (endpoint: mean survival time, dose: 400.0 mg/kg/injection, schedule: Q01DX009 (ip), vehicle: saline) 102 % of control; under setting [10], 98 % of control.

With `CN(Cc1cnc2nc(N)nc(N)c2n1)c1ccc(C(=O)NC(CCC(=O)O)C(=O)O)cc1.[W]` (stereo not given), the T/C is, setting by setting: (endpoint: median survival time, dose: 11.0 mg/kg/injection, schedule: Q01DX009 (ip), vehicle: water) 178 % of control; (endpoint: median survival time, dose: 12.0 mg/kg/injection, schedule: Q01DX009 (ip), vehicle: water) 202 % of control; (endpoint: median survival time, dose: 12.0 mg/kg/injection, schedule: Q01DX009 (other), vehicle: water) 202 % of control; (endpoint: median survival time, dose: 14.0 mg/kg/injection, schedule: Q01DX009 (ip), vehicle: water) 190 % of control; (endpoint: median survival time, dose: 14.0 mg/kg/injection, schedule: Q## X009 (ip), vehicle: water) 190 % of control; (endpoint: median survival time, dose: 21.0 mg/kg/injection, schedule: Q01DX009 (ip), vehicle: water) 178 % of control. In addition, the T/C was 190 % of control (endpoint: median survival time, dose: 22.0 mg/kg/injection, schedule: Q01DX009 (ip), vehicle: water); 190 % of control (endpoint: median survival time, dose: 22.0 mg/kg/injection, schedule: Q01DX009 (other), vehicle: water); 166 % of control (endpoint: median survival time, dose: 41.0 mg/kg/injection, schedule: Q01DX009 (ip), vehicle: water); 166 % of control (endpoint: median survival time, dose: 42.0 mg/kg/injection, schedule: Q01DX009 (ip), vehicle: water); 166 % of control (endpoint: median survival time, dose: 42.0 mg/kg/injection, schedule: Q01DX009 (other), vehicle: water).

Turning to `O=C(O)CCCCCCC(=O)c1ccccc1`, the T/C by setting is: under setting [2], 98 % of control; under setting [4], 97 % of control; under setting [11], 93 % of control.

In the case of `[Cl][Pt+2][Cl].[NH-]CC1CCCCC1[NH-]` (stereo not given), the T/C (endpoint: mean survival time, dose: 3.12 mg/kg/injection, schedule: Q04DX003 (ip), vehicle: saline with Tween-80) is 222 % of control; the T/C (endpoint: mean survival time, dose: 6.25 mg/kg/injection, schedule: Q04DX003 (ip), vehicle: saline with Tween-80) is 319 % of control and 175 % of control; the T/C (endpoint: mean survival time, dose: 12.5 mg/kg/injection, schedule: Q04DX003 (ip), vehicle: saline with Tween-80) is 348 % of control and 270 % of control; the T/C (endpoint: mean survival time, dose: 25.0 mg/kg/injection, schedule: Q04DX003 (ip), vehicle: saline with Tween-80) is 309 % of control.

Regarding `Cc1cn(C2CC3OP(N(C)C)OCC3O2)c(=O)[nH]c1=O` (stereo not given), the T/C was 100 % of control (endpoint: mean survival time, dose: 12.5 mg/kg/injection, schedule: Q01DX005 (ip), vehicle: water); 101 % of control (endpoint: mean survival time, dose: 25.0 mg/kg/injection, schedule: Q01DX005 (ip), vehicle: water); 98 % of control (endpoint: mean survival time, dose: 50.0 mg/kg/injection, schedule: Q01DX005 (ip), vehicle: water); 105 % of control (endpoint: mean survival time, dose: 100.0 mg/kg/injection, schedule: Q01DX005 (ip), vehicle: water); 101 % of control (endpoint: mean survival time, dose: 200.0 mg/kg/injection, schedule: Q01DX005 (ip), vehicle: water).

Regarding `Brc1ccc(-c2nc3sc(-c4ccc(Br)cc4)nc3s2)cc1`, the T/C is, setting by setting: under setting [2], 108 % of control; under setting [4], 104 % of control; under setting [11], 102 % of control.

On to `Cc1ccc(S(=O)(=O)OC2CC3CC2C2C4C=CC(C4)C32)cc1` (stereo not given), for which the T/C runs as follows: under setting [1], 101 % of control; under setting [2], 93 % of control; under setting [4], 101 % of control.

Take `Cc1cc(S(N)(=O)=O)c(N)c(S(N)(=O)=O)c1`: the T/C is 96 % of control under setting [3], 93 % of control under setting [5] and 102 % of control under setting [6].

Take `CCOC(=O)CCC1(CCC(=O)OCC)c2ccccc2-c2ccccc21`: the T/C is, setting by setting: (endpoint: mean survival time, dose: 100.0 mg/kg/injection, schedule: Q01DX001 (ip), vehicle: Klucel (hydroxypropylcellulose) (HPC)) 96 % of control; (endpoint: mean survival time, dose: 200.0 mg/kg/injection, schedule: Q01DX001 (ip), vehicle: Klucel (hydroxypropylcellulose) (HPC)) 104 % of control; (endpoint: mean survival time, dose: 400.0 mg/kg/injection, schedule: Q01DX001 (ip), vehicle: Klucel (hydroxypropylcellulose) (HPC)) 104 % of control.

On to `S=c1nc[nH]c2nc[nH]c12.[W]`, for which the T/C is 151 % of control (2×) and 169 % of control (endpoint: median survival time, dose: 60.0 mg/kg/injection, schedule: Q01DX009 (ip), vehicle: water); 169 % of control (endpoint: median survival time, dose: 60.0 mg/kg/injection, schedule: Q## X009 (ip), vehicle: water); 164 % of control and 167 % of control (2×) (endpoint: median survival time, dose: 80.0 mg/kg/injection, schedule: Q01DX009 (ip), vehicle: water); 164 % of control (endpoint: median survival time, dose: 80.0 mg/kg/injection, schedule: Q## X009 (ip), vehicle: water); 154 % of control (endpoint: median survival time, dose: 100.0 mg/kg/injection, schedule: Q01DX009 (ip), vehicle: water); 154 % of control (endpoint: median survival time, dose: 100.0 mg/kg/injection, schedule: Q01DX009 (other), vehicle: water). The T/C (endpoint: median survival time, dose: 120.0 mg/kg/injection, schedule: Q01DX009 (ip), vehicle: water) was 158 % of control (2×) and 164 % of control; the T/C (endpoint: median survival time, dose: 120.0 mg/kg/injection, schedule: Q01DX009 (other), vehicle: water) was 164 % of control; the T/C (endpoint: median survival time, dose: 140.0 mg/kg/injection, schedule: Q01DX009 (ip), vehicle: water) was 163 % of control; the T/C (endpoint: median survival time, dose: 140.0 mg/kg/injection, schedule: Q## X009 (ip), vehicle: water) is 163 % of control; the T/C (endpoint: median survival time, dose: 160.0 mg/kg/injection, schedule: Q01DX009 (ip), vehicle: water) is 164 % of control; the T/C (endpoint: median survival time, dose: 160.0 mg/kg/injection, schedule: Q01DX009 (other), vehicle: water) is 164 % of control.

As for `Cc1cc(C)[nH]n1`, the T/C runs as follows: under setting [3], 95 % of control; under setting [5], 93 % of control; under setting [6], 97 % of control.

Consider `O=C(CCCCCCCCC(=O)OO)OO` (tested in a mixture with another compound), for which the T/C under setting [2] is 96 % of control.

For `COC(=O)C1OC1(C)c1ccc(C)cc1` (stereo not given), the T/C was 89 % of control under setting [7], 94 % of control under setting [1] and 93 % of control under setting [2].

As for `COC(=O)Nc1cc2c3c(c1)CCCN3CCC2`, the T/C under setting [3] is 104 % of control and the T/C under setting [5] was 93 % of control.

With `COc1cccc(C2=CCCCCC2)c1OC`, the T/C reads like this: under setting [3], 98 % of control; under setting [5], 101 % of control; under setting [6], 102 % of control.

`O=C(O)c1cc2ccc(Cl)cc2c2cc(C(F)(F)F)ccc12`: the T/C (endpoint: mean survival time, dose: 18.8 mg/kg/injection, schedule: Q01DX009 (ip), vehicle: saline) is 97 % of control; the T/C (endpoint: mean survival time, dose: 37.5 mg/kg/injection, schedule: Q01DX009 (ip), vehicle: saline) is 111 % of control; the T/C (endpoint: mean survival time, dose: 75.0 mg/kg/injection, schedule: Q04DX003 (ip), vehicle: saline) is 95 % of control.

Take `O=Cc1ccc2ccccc2[n+]1[O-]`: the T/C under setting [8] is 101 % of control, the T/C under setting [9] is 100 % of control and the T/C under setting [10] was 101 % of control.

Regarding `Cc1cc(Br)ccc1N`, the T/C is, setting by setting: under setting [3], 97 % of control; under setting [5], 96 % of control; under setting [6], 97 % of control.
